“Also recorded” adds a separate entry of the source.

Data set [1] relates to LSMC (leiomyoma smooth muscle cells) spheroids. Put plainly: Cell proliferation in LSMC spheroids, CellTiter-Glo 3D Cell Viability Assay. The format is cell-based, human. As to the method:
(§1) Isolated MSMC and LSMC were plated in 6-well (1×10^5 cells/well) or 96-well (5×10^3 cells/well) plates which were coated with 0.5% agarose gel and incubated 48 hours for spheroids formation.
(§2) The concentrations of inhibitors used was based on earlier studies and the cell proliferation was determined using the CellTiter-Glo 3D Cell Viability Assay (Promega, Madison, WI) according to the manufacturer's protocol. The assay was performed in six replicates per condition and repeated four times using cells isolated from four different patients.

Data set [2] concerns MSMC (myometrial smooth muscle cells) spheroids. The data set is described as follows: Cell proliferation in MSMC spheroids, CellTiter-Glo 3D Cell Viability Assay. Format: cell-based, human. As to the method: as §1, §2
The test system of data set [3] is LSMC spheroids. Put plainly: Immunoblotting of ECM and inflammation proteins in LSMC spheroids after inhibitor treatment. The format is cell-based, human. As to the method: Total protein isolated from paired tissue samples and MSMC and LSMC spheroids following treatment conditions was subjected to immunoblotting. Briefly, samples were suspended in RIPA buffer containing 1 mM EDTA and EGTA (Boston BioProducts, Ashland, MA) supplemented with 1 mM PMSF and a complete protease inhibitor mixture (Roche Diagnostics, Indianapolis, IN), sonicated, and centrifuged at 4° C. for 10 min at 14,000 rpm. The concentration of protein was determined using the BCA™ Protein Assay Kit (Thermo Scientific Pierce, Rockford, IL). Equal aliquots (thirty micrograms) of total protein for each sample was denatured with SDS-PAGE sample buffer and separated by electrophoresis on a SDS polyacrylamide gel. After transferring the samples to a nitrocellulose membrane, the membrane was blocked with TBS-Tween+5% milk and probed with the following primary antibodies: IDO1 (Cell Signaling Technology, Danvers, MA), TDO2, COL3A1 (Proteintech Group, Inc, Chicago, Illinois) and COL1A1 (Fitzgerald Industries Intl, Acton, MA). The membranes were washed with TBS containing 0.1% Tween-20 wash buffer after each antibody incubation cycle. SuperSignal West Pico Chemiluminescent Substrate™ (Thermo Scientific Pierce) was used for detection, and photographic emulsion was used to identify the protein bands, which were subsequently quantified by densitometry. The membranes were also stripped and probed with glyceraldehyde 3-phosphate dehydrogenase (GAPDH) antibody (Santa Cruz Biotechnology, Santa Cruz, CA) serving as the loading control. The densities of the specific protein bands were determined using image J program (imagej.nih.gov/ij/), normalized to GAPDH or a band obtained from staining the membrane with Ponceau S. Results were expressed as means±SEM as a ratio relative to the control group designated as 1.
as §1

In data set [4] the test system is leiomyoma explants. The data set is described as follows: COL1A1 and COL3A1 in culture-conditioned media of leiomyoma explants. Format: cell-based, human. The following applies: fresh leiomyoma explants, different doses, 48 hours, N=2. The method, then: FIG. 5A-F. (A) Representative images of COL1A1 and COL3A1 in culture-conditioned media of leiomyoma explants after treatment with different doses of TDO2 inhibitor, 680C91 for 48 hours (N=2). An equal volume of conditioned media was used, and a Ponceau S-stained protein band on the nitrocellulose membrane was used as a loading control. (B) The effect of DMSO (control) and E2+P4 (10^−8M each) after 48 hours of culture on the expression of IDO1 and TDO2 in LSMC spheroids (N=2). (C) Representative western blot analysis of TDO2 following transfection of LSMC spheroids with anti-miR-200c oligonucleotides for 96 hrs. […] (E-F) QRT-PCR analysis of TDO2 (E), miR-29c and miR-200c (F) in LSMC spheroids after transfection of siRNA negative control (siNC) or TDO2 siRNA oligonucleotides (siTDO2) for 96 hours (N=3). The results are presented as mean±SEM with P values (*:p<0.05) indicated by corresponding lines.
Using fresh leiomyoma explants, we confirmed that the expression of COL1A1 and COL3A1 was decreased in culture-conditioned media following treatment with different doses of TDO2 inhibitor, 680C91 (FIG. 5A).

The test system of data set [5] is leiomyoma explants. Put plainly: CYP1B1 expression in leiomyoma explants (AhR signaling marker). As to conditions: fresh leiomyoma explants, 48 hours; kynurenine 100 μM, tryptophan different doses (mM), 680C91 50 μM. The format is cell-based, human.
Data set [6] relates to leiomyoma explants. Put plainly: Preliminary experiment: leiomyoma explants implanted subcutaneously in ovariectomized CB-17 scid/beige mice. The format is in vivo. The following applies: 8 mg/Kg daily via IP, 8 weeks. The method, then: This example also performed a preliminary experiment using freshly collected leiomyoma explants implanted subcutaneously on the flank of ovariectomized CB-17 scid/beige female mice (N=2), and treated with vehicle or TDO2 inhibitor (680C91; 8 mg/Kg daily via IP) for 8 weeks. After sacrifice, plasma was collected and analyzed for blood chemistry panel (Abaxis).

For data set [7], the system named is leiomyoma explants. Put plainly: In vivo experiment: leiomyoma explants implanted subcutaneously in ovariectomized CB-17 scid/beige mice. As to conditions: 10 mg/Kg daily, i.p., 8 weeks. The method, then:
FIG. 7A-E. (A) Representative of the gross appearance of leiomyoma specimens (arrow) implanted subcutaneously in CB-17 SCID/Beige female mice following 8 weeks treatment of vehicle (left) or TDO2 inhibitor (right; 680C91; 10 mg/Kg daily via IP). (B) The relative explants weight between vehicle and 680C91 treated group after 8 weeks treatment (n=6). The ratio of plasma kynurenine vs tryptophan levels was shown in (C). (D) QRT-PCR analysis of COL1A1, FN1, DNMT1 and CCND1 expression in explants (n=6) implanted subcutaneously after 8 weeks treatment of vehicle or TDO2 inhibitor. (E) Paraformaldehyde-fixed paraffin-embedded xenograft explants of vehicle (a) or TDO2 inhibitor (b) stained with Masson's Trichrome reagent. […] The results are presented as mean±SEM with P values (*:p<0.05) indicated by corresponding lines.
We also performed the in vivo experiment using freshly collected leiomyoma explants implanted subcutaneously in the flank of ovariectomized CB-17 scid/beige female mice (N=6), and treated with vehicle or TDO2 inhibitor (680C91; 10 mg/Kg daily, i.p.) for 8 weeks (FIG. 7A). After sacrifice, the explants weight was determined and the collected plasma was analyzed for levels of tryptophan, kynurenine and blood chemistry panel (Abaxis).

Data set [8] concerns LSMC spheroids. The data set is described as follows: Kynurenine treatment of LSMC spheroids, expression of AhR, IDO1, TDO2 and COL1A1. Format: cell-based, human. As to conditions: 100 μM, 72 hours, N=2. The method, then:
FIG. 6A-D. (A) The relative (mean±SEM) expression of CYP1B1 in paired (N=43) myometrium (Myo) and leiomyoma (Lyo). (B) Representative images show the levels of AhR and ARNT in fresh subfractionated cytoplasmic (Cyto) and nuclear (Nu) phase from myometrium (Myo) and paired leiomyoma (Lyo) with Calpain 1 and Lamin B1 served as markers for the respective subcellular fractions (N=3). (C) Representative images of CYP1B1 in leiomyoma explants after treatment with kynurenine (100 μM), different doses of tryptophan (mM) and TDO2 inhibitor (680C91, 50 μM) for 48 hours with a Ponceau S-stained protein band on the nitrocellulose membrane used as a loading control (N=2). (D) The effect of kynurenine (KYN, 100 μM) treatment for 72 hours on the expression of AhR, IDO1, TDO2 and COL1A1 in LSMC spheroids (N=2). The results are presented as mean±SEM with P values (*:p<0.05) indicated by corresponding lines.
Using fresh leiomyoma explants we confirmed that the expression of CYP1B1 was increased by the treatment of kynurenine (Kyn) and tryptophan, while decreased following TDO2 inhibitor treatment (FIG. 6C).

[9] abbreviates: Example 3, various concentrations, 48 hours, n=4.
Setting [10] is: Example 2, different doses, 48 h.
Setting [11] is: Example 3, 48 hours, different concentrations.

`Fc1ccc2c(/C=C/c3cccnc3)c[nH]c2c1` [Compound 680C91, 6-Fluoro-3-[(1E)-2-(3-pyridinyl)ethenyl]-1H-indole]: the cell proliferation result in data set [1] (Example 2) is “significantly suppressed”. Further, in data set [1] (setting [9]), the spheroids cell proliferation entry is “significantly inhibited; also recorded: significantly repressed”. In data set [2] (Example 2), the cell proliferation entry was “significantly suppressed”. The spheroids cell proliferation entry in data set [2] (setting [9]) is “significantly repressed”. Moreover, in the data set on LSMC spheroids [3] (setting [10]), the “protein expression of COL3A1” value is reported as “down-regulated dose dependently”, the “protein expression of IKBKB” value is listed as “down-regulated dose dependently” and the “protein expression of fibronectin” value was “down-regulated dose dependently”. In the data set with LSMC spheroids [3] (setting [11]), the “expression of COL1A1” value is given as “significantly reduced; also recorded: significantly repressed” and the “expression of COL3A1” value is on record as “significantly reduced; also recorded: significantly repressed”. Besides, in the data set on leiomyoma explants [4], the “expression of COL1A1 in culture-conditioned media” value is given as “decreased” and the “expression of COL3A1 in culture-conditioned media” value is “decreased”. Further, in the data set on leiomyoma explants [5], the “expression of CYP1B1” value is “decreased”. For the same compound, in the data set with leiomyoma explants [6], the TDO2 expression entry is “down-regulated”, the “effects on body weight” value is reported as “no effects”, the “effects on food consumption” value is listed as “no effects” and the “expression of COL1A1” value was “down-regulated”. Besides, in the data set on leiomyoma explants [6], the “expression of MyD88” value was “down-regulated” and the “expression of TGF-β3” value was “down-regulated”. In addition, the tumor size result with leiomyoma explants [6] (N=2) is recorded as “reduced”. In addition, the “adverse effects on blood chemistry including liver and renal panels” value in the data set on leiomyoma explants [6] (plasma) is listed as “no adverse effects”. For the same compound, in the data set with leiomyoma explants [7], the “effects on body weight” value is listed as “no effects” and the “effects on food consumption” value is listed as “no effects”. Moreover, in the data set with leiomyoma explants [7] (N=6), the explants weight entry is “lower weight”. Moreover, in the data set with leiomyoma explants [7] (explants, QRT-PCR), the “expression of CCND1” value is reported as “down-regulated”, the “expression of COL1A1” value is listed as “down-regulated”, the “expression of DNMT1” value is recorded as “down-regulated” and the “expression of FN1” value was “down-regulated”. Further, in the data set on leiomyoma explants [7] (plasma), the “adverse effects on blood chemistry including liver and renal panels” value was “no adverse effects”; the ratio of kynurenine/tryptophan result is reported as “decreased”. Besides, in the data set with leiomyoma explants [7] (xenograft explants), the “deposition of collagens, keratin and cytoplasm, Masson's Trichrome staining” value is on record as “less deposition”.

In the case of `Nc1ccccc1C(=O)CC(N)C(=O)O` (stereo not drawn) [kynurenine], the “expression of CYP1B1” value with leiomyoma explants [5] is “increased”. In the data set with LSMC spheroids [8], the “expression of AhR” value is “increase”, the “expression of COL1A1” value was “increase”, the “expression of IDO1” value is “increase” and the “expression of TDO2” value was “increase”.

Turning to `N[C@@H](Cc1c[nH]c2ccccc12)C(=O)O` [tryptophan], the “expression of CYP1B1” value in the data set on leiomyoma explants [5] is “increased”.

These data come from patent publication US12122848B2, “Compositions and methods for treating fibroids” (THE LUNDQUIST INSTITUTE FOR BIOMEDICAL INNOVATION AT …, priority 2020, dated 2024).
